What is called IC50 is the concentration at which inhibition is half-maximal.

The values below come from ChEMBL document CHEMBL4476872, “Inhibitors of cellular metabolic processes” (2018).

Molecules are shown by their SMILES. Where only a bound is given, the exact number is not on record here.

This assay deals with S-adenosylmethionine synthase isoform type-2 (Homo sapiens, UniProt P31153). As to the kind of experiment: Inhibition of recombinant His6-tagged MAT2A (unknown origin) expressed in SF9 insect cells using L-Met as substrate preincubated for 60 mins followed by substrate and ATP addition and measured after 60 mins by spectrophotometric analysis.
Sequence of S-adenosylmethionine synthase isoform type-2 (P31153 whole entry, canonical isoform): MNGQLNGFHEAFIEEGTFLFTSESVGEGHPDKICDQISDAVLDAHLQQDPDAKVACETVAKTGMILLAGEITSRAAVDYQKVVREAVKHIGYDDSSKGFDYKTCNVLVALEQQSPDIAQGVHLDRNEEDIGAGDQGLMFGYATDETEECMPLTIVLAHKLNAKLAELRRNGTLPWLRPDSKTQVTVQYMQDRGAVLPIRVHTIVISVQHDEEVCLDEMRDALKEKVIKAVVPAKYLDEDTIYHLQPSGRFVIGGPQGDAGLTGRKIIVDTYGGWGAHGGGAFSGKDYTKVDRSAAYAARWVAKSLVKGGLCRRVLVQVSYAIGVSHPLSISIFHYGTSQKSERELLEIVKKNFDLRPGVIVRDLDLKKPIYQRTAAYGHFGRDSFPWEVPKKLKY

On to `Cc1[nH]c2c(N3CCCCC3)c(-c3ccccc3)nn2c(=O)c1-c1ccccc1`, for which the IC50 was in the range of 100 to 1000 nM.
With `COC(=O)Cc1nc2ccc(-c3c(C)[nH]c4c(-c5ccccc5)c(-c5ccccc5)nn4c3=O)cc2s1`, the IC50 was below 100 nM.
Turning to `Cc1[nH]c2c(-c3ccccc3)c(-c3ccccc3)nn2c(=O)c1-c1ccc(OCC(=O)N(C)C)cc1`, the IC50 lay in the range of 100 to 1000 nM.
In the case of `COc1ccc(-c2c(CC#N)[nH]c3c(-c4ccccc4)c(-c4ccccc4)nn3c2=O)cc1` it was 100 to 1000 nM.
